Results taken from paper PMC12346198 (Cancers, 2025).
Like-named read-outs stand apart in the source and are kept apart here.

Assays:
[1] = Single-dose IV and PO pharmacokinetics in mice; format: in vivo, male C57BL/6 mice; conditions: for AUC: analyte = dosed compound; for Cmax: read-out: Cmax, Geo Mean; for Tmax: read-out: Tmax, Geo Mean
Description: The in-life study and quantitative analysis of plasma samples using LC/MS were performed at Charles River Laboratories, Inc. (Wilmington, MA, USA).

[2] = Thermodynamic solubility in fasted-state simulated intestinal fluid (FaSSIF); format: physicochemical; conditions: pH 6.5, LLOQ < 1.56 µM
Description: The thermodynamic solubility analysis in biological media and the quantitative analysis of samples were performed according to the standard protocol at WuXi AppTec (Shanghai, China).

[3] = Pharmacokinetic modeling of valine pro-drug conversion to parent; format: in vivo, mice
Source text: A total of 36 mice with available PK data were included for non-linear mixed-effects analysis using NONMEM (version 7.5.0, ICON Development Solutions, Ellicott City, MD, USA), implementing the first-order conditional estimation with interaction (FOCE-I). R (version 4.2.0, R Foundation for Statistical Computing, Vienna, AUT, http://www.r-project.org) was used for visual diagnostics. […] The analyte (valine conjugate and parent compound) plasma concentration–time data were confirmed to have a biphasic distribution and elimination and were therefore fit separately to a linear two-compartment model with a depot for oral administration. Each model was parametrized in terms of clearance (CL), the volume of distribution of the central compartment (V1), intercompartmental clearance (Q), and the volume of the peripheral compartment (V3). Interindividual variability (IIV) for each parameter was assumed to be log-normally distributed, and residual variability (RUV) was described with a proportional error model. The PK parameter estimates from these independent models (parent compound or valine conjugate) were used as initial estimates for a combined model describing the conversion and disposition of the valine conjugate to the parent drug and associated metabolites. The model estimated the fraction of pro-drug converted to parent drug (Fm), which was used to calculate the first-order rate constant of metabolite formation (Kmet) = Fm × Kel. This rate constant was used to calculate the half-life of the conversion process and the amount of metabolite formed at complete conversion. The rate of metabolite formation was then calculated as the ratio of the amount of metabolite formed to the time required for complete conversion (~5 half-lives), as detailed in Figures S8–S11.

[4] = PO, 40 mg/kg (valine conjugates 40 mg/kg EQV)

HL_Lambda_z, Geo Mean ([1]; IV, 2 mg/kg (valine conjugates 2 mg/kg EQV)): 1.94 h
IV: Clobs, Geo Mean ([1]; IV, 2 mg/kg (valine conjugates 2 mg/kg EQV), non-compartmental analysis): 0.004 L/h
HL_Lambda_z, Geo Mean [1, 4]: 5.77 h
PO: Cl_Fobs, Geo Mean [1, 4]: 0.59 L/h
AUC ([1]; male, C57BL/6, mouse, plasma, iv, 2 mg/kg, IV, 2 mg/kg (valine conjugates 2 mg/kg EQV), non-compartmental analysis, read-out: AUCall, Geo Mean): 36.1 µM·h
Cmax ([1]; male, C57BL/6, mouse, plasma, iv, 2 mg/kg, IV, 2 mg/kg (valine conjugates 2 mg/kg EQV)): 20.2 µM
AUC ([1]; male, C57BL/6, mouse, plasma, po, 40 mg/kg, PO, 40 mg/kg (valine conjugates 40 mg/kg EQV), non-compartmental analysis, read-out: AUCall, Geo Mean): 4.17 µM·h
Cmax ([1]; male, C57BL/6, mouse, plasma, po, 40 mg/kg, PO, 40 mg/kg (valine conjugates 40 mg/kg EQV)): 0.99 µM
AUC ([1]; male, C57BL/6, mouse, plasma, po, 40 mg/kg, single PO dose, 40 mg/kg or molar equivalent, read-out: AUCall following an oral dose): 4.17 µM·h
Tmax ([1]; male, C57BL/6, mouse, plasma, IV, 2 mg/kg (valine conjugates 2 mg/kg EQV)): 23.4 min
Tmax ([1]; male, C57BL/6, mouse, plasma, PO, 40 mg/kg (valine conjugates 40 mg/kg EQV)): 60 min
clearance ([1]; male, C57BL/6, mouse, plasma, single IV dose, 2 mg/kg or molar equivalent, read-out: Systemic clearance following an IV dose (converted)): 0.0667 mL/min
solubility thermodynamic [2]: < 1.56 µM
k el ([3]; C57BL/6, mouse, plasma, model estimate, read-out: Kel, elimination rate constant of valine conjugate (converted)): 0.00853 s⁻¹
Kmet, rate constant of conversion to parent compound ([3]; Kmet = Fm × Kel): 11.9 h⁻¹
Fraction of pro-drug converted to parent (Fm) ([3]; two-compartment model estimate): 39%
SMILES: CC(C)[C@H](N)C(=O)Oc1ccc(Cl)cc1C(=O)Nc1ccc(C(F)(F)F)cc1 [valine–compound #11]
